The values below come from patent US10428060B2, “PI-kinase inhibitors with anti-infective activity” (The Board of Trustees of the Leland Stanford Junior …, priority 2011, dated 2019).

In experiment [1] the target is T1, PI4KIIIA (Homo sapiens, UniProt P42356).
T1 construct: made in house; host or cells: COS-7 cells, transient transfection, anti-HA immunoprecipitate on protein G Sepharose beads
Briefly: PI4KIIIA kinase assay. Type of experiment: biochemical. On the procedure:
In the assays described here, p110α-p85 complex and p110γ were acquired from Millipore. Assays were performed with Lα-phosphatidylinositol (Avanti) as described in Knight et al. Nat Protoc. 2007; 2 (10):2459-66. Inhibitor series were prepared 10% DMSO as 5× stocks for the assay. Assays of HsVps34 were performed as described in Knight et al, except that the final assay buffer composition used was changed to 20 mM HEPES 7.5, 100 mM NaCl, 3 mM MgCl, 1 mg/mL PI and 44 nM hvps34 was used in the assay. […] COS-7 cells were cultured in 10 cm dishes and transfected at 70% confluence with 10 μg of plasmid DNA (HA-tagged bovine PI4KIIIβ, HA-tagged human PI4KIIIα) using Lipofectamine 2000 and 5 ml Opti-MEM following the manufacturer's instructions. After 5 hours the transfection medium was replaced with 10 ml complete DMEM. 36 hrs post transfection, cells were washed once with 5 ml PBS (pH 7.4) and lysed in 1 ml of lysis buffer (1) on ice. Lysates were collected by scraping and after 15 min they were centrifuged at 13,000 rpm for 10 min. To the lysates was added 200 μl of protein G Sepharose 4 fast flow beads that were prewashed with PBS and lysis buffer and 2 μg of anti-HA antibody. The tubes were then incubated overnight at 4 degrees C. in a tube rotator. The Sepharose beads in the lysate were washed twice with 150 mM NaCl in RIPA buffer, twice with RIPA buffer and once with kinase buffer (50 mM Tris/HCl, pH 7.5, 20 mM MgCl2, 1 mM EGTA, 1 mM PtdIns, 0.4% Triton X-100, 0.5 mg/mL BSA) and finally the beads were resuspended in 200 μL kinase buffer. Kinase reactions were run in a mixture of 45 μL of PI buffer (1 mM PI in kinase buffer), 10 μL of immunoprecipitated beads, 2 µL of inhibitors (dissolved and diluted in DMSO) or DMSO and 5 μL of [γ-^32P]-ATP (1 mM and 2 μCi/tube). The immunoprecipitates in PI buffer were pre-incubated with the drugs for 20 min prior the initiation of kinase reaction by adding ATP and the reactions were carried out for 30 min in 15 ml polypropolyne tubes. […] Samples were counted in a scintillation beta counter after adding 5 ml of Instafluor (Perkin-Elmer). […]

Experiment [2] has as its target T2, PI3KC2G (Homo sapiens, UniProt O75747).
T2 sequence (O75747 1-1486): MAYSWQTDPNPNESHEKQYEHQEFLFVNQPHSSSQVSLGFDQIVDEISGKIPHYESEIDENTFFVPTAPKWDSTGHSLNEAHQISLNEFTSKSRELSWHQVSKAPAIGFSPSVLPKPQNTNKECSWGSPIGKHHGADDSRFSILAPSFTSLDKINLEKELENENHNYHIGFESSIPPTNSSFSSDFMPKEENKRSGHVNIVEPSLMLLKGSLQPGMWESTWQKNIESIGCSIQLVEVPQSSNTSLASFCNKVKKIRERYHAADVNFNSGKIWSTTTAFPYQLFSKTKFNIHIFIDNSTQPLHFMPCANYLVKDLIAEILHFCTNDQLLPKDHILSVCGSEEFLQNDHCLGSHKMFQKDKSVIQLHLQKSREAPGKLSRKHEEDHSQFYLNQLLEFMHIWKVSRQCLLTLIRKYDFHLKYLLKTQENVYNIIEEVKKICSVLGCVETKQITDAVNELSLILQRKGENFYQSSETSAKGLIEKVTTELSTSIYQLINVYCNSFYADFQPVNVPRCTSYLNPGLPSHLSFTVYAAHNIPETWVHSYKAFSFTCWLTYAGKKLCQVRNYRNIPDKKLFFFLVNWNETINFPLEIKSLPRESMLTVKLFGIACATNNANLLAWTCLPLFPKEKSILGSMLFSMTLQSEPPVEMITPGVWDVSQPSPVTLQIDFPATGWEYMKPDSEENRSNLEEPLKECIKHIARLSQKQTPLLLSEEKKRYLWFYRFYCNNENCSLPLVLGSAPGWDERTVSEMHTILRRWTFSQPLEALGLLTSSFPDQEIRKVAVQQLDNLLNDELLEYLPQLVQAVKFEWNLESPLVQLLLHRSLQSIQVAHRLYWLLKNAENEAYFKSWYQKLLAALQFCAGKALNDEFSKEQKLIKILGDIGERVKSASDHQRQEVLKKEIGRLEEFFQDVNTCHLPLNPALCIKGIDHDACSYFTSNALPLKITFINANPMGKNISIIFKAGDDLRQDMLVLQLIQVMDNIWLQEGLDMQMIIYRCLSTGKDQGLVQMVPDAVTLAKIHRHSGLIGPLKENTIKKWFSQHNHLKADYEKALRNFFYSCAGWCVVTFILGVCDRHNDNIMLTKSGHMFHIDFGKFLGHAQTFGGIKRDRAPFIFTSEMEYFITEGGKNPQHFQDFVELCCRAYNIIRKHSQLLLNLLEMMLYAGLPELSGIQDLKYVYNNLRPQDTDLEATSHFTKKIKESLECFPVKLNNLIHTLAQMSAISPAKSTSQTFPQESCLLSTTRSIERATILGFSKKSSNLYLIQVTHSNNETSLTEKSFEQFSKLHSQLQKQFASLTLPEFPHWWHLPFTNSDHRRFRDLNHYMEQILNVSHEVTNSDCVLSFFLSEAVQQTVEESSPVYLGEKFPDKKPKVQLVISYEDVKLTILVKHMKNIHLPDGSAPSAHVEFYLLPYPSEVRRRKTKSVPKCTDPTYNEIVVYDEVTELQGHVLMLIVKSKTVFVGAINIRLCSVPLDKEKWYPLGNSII
Briefly: PI3KC2G kinase assay. Type of experiment: biochemical.

The structures appear in SMILES notation.

In general, IC50 refers to the midpoint of a concentration-inhibition curve.

T1 sequence (P42356 whole entry): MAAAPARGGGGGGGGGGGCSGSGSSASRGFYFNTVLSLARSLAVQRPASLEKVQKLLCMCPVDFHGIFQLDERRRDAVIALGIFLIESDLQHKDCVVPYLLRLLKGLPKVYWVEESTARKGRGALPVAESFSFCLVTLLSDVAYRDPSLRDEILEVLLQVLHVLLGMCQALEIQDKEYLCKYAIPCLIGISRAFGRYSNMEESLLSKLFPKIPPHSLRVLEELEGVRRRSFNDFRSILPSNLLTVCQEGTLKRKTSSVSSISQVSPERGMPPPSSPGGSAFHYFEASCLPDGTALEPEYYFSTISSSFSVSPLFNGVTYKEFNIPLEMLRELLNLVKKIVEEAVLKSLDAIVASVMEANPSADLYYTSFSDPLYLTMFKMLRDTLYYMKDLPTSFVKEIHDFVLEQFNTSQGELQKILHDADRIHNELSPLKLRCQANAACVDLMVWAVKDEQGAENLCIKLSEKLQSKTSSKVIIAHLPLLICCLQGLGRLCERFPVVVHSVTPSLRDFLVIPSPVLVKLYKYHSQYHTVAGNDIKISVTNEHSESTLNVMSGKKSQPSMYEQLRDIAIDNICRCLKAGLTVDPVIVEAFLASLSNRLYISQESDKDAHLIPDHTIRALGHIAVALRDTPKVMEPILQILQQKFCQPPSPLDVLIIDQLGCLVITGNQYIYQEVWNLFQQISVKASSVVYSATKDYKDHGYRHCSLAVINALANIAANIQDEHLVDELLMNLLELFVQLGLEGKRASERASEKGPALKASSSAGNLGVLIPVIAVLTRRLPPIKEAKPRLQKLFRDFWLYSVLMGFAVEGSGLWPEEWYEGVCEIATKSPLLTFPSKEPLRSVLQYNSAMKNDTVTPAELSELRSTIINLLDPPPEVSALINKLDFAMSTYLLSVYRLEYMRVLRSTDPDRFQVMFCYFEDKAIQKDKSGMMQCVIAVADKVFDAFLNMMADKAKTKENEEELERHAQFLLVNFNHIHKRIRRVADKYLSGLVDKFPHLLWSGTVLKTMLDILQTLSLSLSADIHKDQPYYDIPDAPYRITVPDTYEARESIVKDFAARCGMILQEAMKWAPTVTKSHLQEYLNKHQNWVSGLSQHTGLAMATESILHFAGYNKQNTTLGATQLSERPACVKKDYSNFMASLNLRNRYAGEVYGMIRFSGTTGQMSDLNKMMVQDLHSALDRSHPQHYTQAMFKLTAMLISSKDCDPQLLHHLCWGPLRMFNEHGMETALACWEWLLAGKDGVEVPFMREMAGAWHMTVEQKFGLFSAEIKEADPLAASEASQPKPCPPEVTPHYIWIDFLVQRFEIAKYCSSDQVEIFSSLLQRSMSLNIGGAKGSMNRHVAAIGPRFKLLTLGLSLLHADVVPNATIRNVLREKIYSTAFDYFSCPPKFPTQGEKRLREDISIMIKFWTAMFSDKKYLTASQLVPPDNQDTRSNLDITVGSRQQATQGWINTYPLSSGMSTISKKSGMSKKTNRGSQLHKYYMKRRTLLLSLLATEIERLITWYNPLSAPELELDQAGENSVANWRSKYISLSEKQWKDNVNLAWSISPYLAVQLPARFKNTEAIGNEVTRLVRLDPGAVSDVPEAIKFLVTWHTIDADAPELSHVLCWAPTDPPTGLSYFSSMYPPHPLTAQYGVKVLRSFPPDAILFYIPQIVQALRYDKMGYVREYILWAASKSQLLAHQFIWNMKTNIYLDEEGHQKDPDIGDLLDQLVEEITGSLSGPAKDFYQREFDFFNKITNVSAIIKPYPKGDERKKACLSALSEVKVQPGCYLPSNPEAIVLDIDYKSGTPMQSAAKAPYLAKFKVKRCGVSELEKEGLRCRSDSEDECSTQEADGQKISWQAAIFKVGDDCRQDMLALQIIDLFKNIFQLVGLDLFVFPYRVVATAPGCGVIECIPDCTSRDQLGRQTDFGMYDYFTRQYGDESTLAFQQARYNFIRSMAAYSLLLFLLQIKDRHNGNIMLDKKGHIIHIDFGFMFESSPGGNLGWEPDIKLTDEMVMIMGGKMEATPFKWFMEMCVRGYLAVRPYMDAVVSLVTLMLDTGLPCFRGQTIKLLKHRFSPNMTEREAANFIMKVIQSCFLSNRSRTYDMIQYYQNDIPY

Consider `COc1ncc(-c2sc(NC(=O)CC3CCOCC3)nc2C)cc1S(=O)(=O)NC1CCCC(O)C1` (centres unmarked) [Compound S-263], for which the IC50 is below 0.1 µM in experiment [1] and 0.1 to 1 µM in experiment [2].
